We go through three molecules from PMC6387968, “An in vitro ADME and in vivo Pharmacokinetic Study of Novel TB-Active Decoquinate Derivatives” (Frontiers in Pharmacology, 2019).

Data set [1] in a line: in vivo. Also noted: species or system male C57BL/6 mice. The note with it: for Vd / clearance / half-life / t1/2 / Cmax / Tmax: male, C57BL/6, mouse; for AUC: mouse. As to the method: Healthy male C57BL/6 mice, 12 to 16 weeks old, weighing approximately 30 g, were maintained at the animal facility of the University of Cape Town. Mice were fed a standard laboratory diet and water ad libitum. Mice were housed in 27 × 21 × 18 cm cages, under controlled environmental conditions (26 ± 1°C with 12-h light/dark cycles). Mice were acclimatized to their experimental environment for 4 days before the experiment started.
Clear suspensions of RMB041, -043, and -073 were prepared in […] hydroxypropyl methylcellulose and administered via oral gavage (20 mg/kg, volume = 200 μL, n = 3). Blood samples (20 μL) were collected on ice in heparinized microvials via tail bleeding at 0, 0.5, 1, 3, 5, 8, 10, 24, and 48 h following drug administration and stored at -80°C.
Solutions for IV injection (5 mg/kg) were prepared using a mixture of dimethyl acetamide, polyethylene glycol, and polypropylene glycol (1:3:6, v/v) and were injected into the penile vein (80 μL) following anesthesia of mice with intraperitoneal injection (IP) of ketamine/xylazine (75–100 mg/kg + 10 mg/kg; n = 3). Blood samples were collected on ice in heparinized microvials via tail bleeding at 0.083, 0.5, 1, 3, 5, 8, 10, 24, and 48 h following drug administration and stored at -80°C.
Mouse whole-blood samples (20 μL) were each treated with 100 μL ACN containing IS (carbamazepine, 1 μg/mL) to precipitate blood proteins, and were subjected to vigorous vortexing for 1 min and centrifugation at 5590 × g for 5 min. The supernatant layer containing compound (50 μL) was removed from each sample and added to the analysis plate. Thereafter, samples were dried down under nitrogen. A solution of ACN and water (1:1, v:v, 100 μL) was added to each well, and samples were analyzed via LC-MS/MS.
To determine compound concentrations in mouse whole-blood samples, seven calibration samples (range 0.980 to 4000 ng/mL), as well as low-, medium-, and high-concentration quality control (QC) samples (3, 1600, and 3200 ng/mL, respectively) were prepared in mouse blood and subjected to ACN precipitation as described above, in triplicate. Calibration, QC, and test samples were analyzed via LC-MS/MS. Calibration samples were used to plot standard curves, from which test sample concentrations were calculated via quadratic regression (weighting factor = 1/x).
A reverse-phase HPLC column (Gemini NX, C18, 2.6 μm, 50 × 2.1 mm, Phenomenex) was used to separate the compounds and IS (mobile phase B, 0.1% FA in ACN; mobile phase A, 0.1% FA in analytical-grade water). Auto-sampling was performed using an Agilent 1200 series auto-sampler. Data acquisition and evaluation were performed using the Analyst 1.6.2 software (Applied Biosystems, Foster City, CA, United States).
Plots of concentration against time were used to determine the maximal drug concentration (Cmax), time at which Cmax is reached (Tmax), area-under-the-curve from time zero to infinity (AUC0-∞), and the elimination half-life (t1/2). Using these values, the clearance, volume of distribution, and oral bioavailability (BA) were calculated using the non-compartmental analysis (NCA) software PK Solutions version 2.0 (Summit Research Services, Montrose, CO, United States).
The drug concentrations indicated in Figure 2–7 were used to calculate the PK parameters in Table 6 via NCA. Here, the area under the murine whole-blood concentration-time graph is divided into sequential trapezoids that are summed to determine the AUC, which is used to determine t1/2, apparent volume of distribution (Vd), clearance, and percentage BA.

Data set [2] is classed as in vitro ADME. The note with it: pH 7.4. On the procedure: The permeability of the compounds was assessed via a PAMPA using a 96-well multiscreen filter plate ([…]). The filter plate was coated with 5% hexadecane in hexane and was allowed to dry before starting the assay. Lucifer yellow was added to the apical side of the filter plate in each well containing test compound solutions prepared in DMSO. A solution of each compound was diluted into phosphate buffer at pH 7.4 (final concentration = 1 μg/mL) and was added to the apical portion of the donor plate. The acceptor plate was filled with blank buffer (pH 7.4). The plates were slotted into each other and agitated at 80 rpm for 4 h at 22°C. Samples from donor and theoretical equilibrium wells were matrix-matched with blank phosphate buffer at pH 7.4. Samples were treated with ACN containing IS (carbamazepine, 23.6 ng/mL) and were submitted for LC-MS/MS analysis on an Agilent Rapid Resolution HPLC and AB Sciex 4500 MS. […] [Wohnsland and Faller, 2001]; [Jung et al., 2006]). where, VA is the volume of the acceptor compartment (0.25 cm^3), VD is the volume of the donor compartment (0.15 cm^3), A is the accessible filter area (0.024 cm^2), and t is the incubation time (s). The peak areas of the samples were used to determine the Papp of each compound using Eq. 3. Papp=C × -ln(1-Acceptor […]/Donor […])

Data set [3] in a line: in vitro. The following applies: microsomes. It counts as in vitro ADME. As to the method: RMB041, -043, and -073 ([…]) prepared in DMSO were incubated separately with 530 μL mouse and human microsomes (0.4 mg/mL) at 37°C with the cofactor NADPH (1 mM). Compounds were assessed at 0 and 60 min. The reaction was stopped by the addition of ice-cold ACN containing IS (carbamazepine, 23.6 ng/mL). The samples were analyzed via LC-MS/MS using the instrumentation and conditions described above. The in vitro half-life, intrinsic clearance rate, and hepatic extraction ratio were predicted using results from this assay in the following equations ([Obach, 1999]). Metabolic stability was assessed as the compound’s depletion from a starting concentration of […] over 1 h in mouse and human microsomal fractions. The in vitro half-life can be predicted from this assay. The linear regression from a graph relating natural logarithmic percentage of the compound remaining versus the incubation time was used to calculate the half-life, CLint, and EH.

Data set [4] has as its system Mtb H37Rv. Also noted: method as in Beteck et al., 2018. The following applies: in vitro, Mtb H37Rv; ref Beteck et al., 2018; cited from earlier work.

As usually defined, the Vd is a proportionality between amount in the body and measured concentration, not a real space. As a reminder, the clearance is the rate of elimination divided by the concentration. Low readings indicate inefficient removal, high ones efficient removal. For orientation: half-life means how long it takes for the measured level to halve. A lower half-life goes with fast loss. The Cmax is the highest concentration seen after dosing. Usually Tmax stands for the time at which the peak concentration occurs. Broadly, the AUC is the area under the concentration-time curve, a measure of exposure. The low end stands for less exposure, the high end for more exposure. One may read the microsomal CLint as the rate of metabolic loss divided by the concentration. A high value points to rapid turnover. With `CCCCCCCCCCOc1cc2c(=O)c(C(=O)NCCNCCO)cn(CC)c2cc1OCC` [RMB043], in data set [1] (iv, 5 mg/kg), the Vd was 4.6 ± 1.6 L/kg, the clearance is 1.18 mL/min/kg, the half-life is 8.6 ± 0.4 h and the “t1/2” value was found to be 8.6 ± 0.4 h. Besides, in data set [1] (iv, 5 mg/kg), the AUC was determined as 10068.4 ± 127.8 µmol·min/L. Besides, in data set [1] (po, 20 mg/kg), the Cmax came to 5.6 ± 1.4 µM, the Tmax amounted to 0.5 h and the half-life was 6.2 ± 0.8 h. Moreover, the “PAMPA Log Papp” value in data set [2] is recorded as -4.8. In data set [3], this molecule displayed a half-life at 0.1 M below 1.67 h and a microsomal CLint at 0.1 M below 110 µL/min/mg. Further, the “90% minimum inhibitory concentration (MIC90)” value in data set [4] is 4.18 µM.

For `CCCCCCCCCCOc1cc2c(=O)c(C(=O)NCCOCCO)cn(CC)c2cc1OCC` [RMB041], in data set [1] (iv, 5 mg/kg), the Vd stood at 1.2 ± 0.03 L/kg, the clearance was 0.385 mL/min/kg, the half-life was 62.3 ± 6.73 h and the “t1/2” value came out at 62.3 ± 6.7 h. This molecule also had an AUC in data set [1] (iv, 5 mg/kg) of 29250.4 ± 309.0 µmol·min/L. Besides, in data set [1] (po, 20 mg/kg), the Cmax turned out to be 5.4 ± 0.4 µM, the Tmax was 0.5 h and the half-life is 23.4 ± 2.5 h. In addition, in data set [2], the “PAMPA Log Papp” value is given as -4.8. Moreover, in data set [3], the half-life at 0.1 M is above 2.5 h and the microsomal CLint at 0.1 M was below 20 µL/min/mg. The “90% minimum inhibitory concentration (MIC90)” value in data set [4] was 1.61 µM.

Consider `CCCCCCCCCCOc1cc2c(=O)c(C(=O)NCCOCCO)cn(CCO)c2cc1OCC` [RMB073], for which, in data set [1] (iv, 5 mg/kg), the Vd worked out at 3.9 ± 0.5 L/kg, the clearance was 0.575 mL/min/kg, the half-life is 15.3 ± 3.2 h and the “t1/2” value is 15.3 ± 3.2 h. In data set [1] (iv, 5 mg/kg), this molecule showed an AUC of 15940.0 ± 400.0 µmol·min/L. For the same molecule, in data set [1] (po, 20 mg/kg), the Cmax was determined as 2 ± 0.03 µM, the Tmax was 0.5 h and the half-life was 11.6 ± 1.3 h. Also, the “PAMPA Log Papp” value in data set [2] was -4.5. For the same molecule, in data set [3], the half-life at 0.1 M is above 2.5 h and the microsomal CLint at 0.1 M is below 20 µL/min/mg. The “90% minimum inhibitory concentration (MIC90)” value in data set [4] was 1.88 µM.
